Measured values: the supplement of paper PMC13380429

How the values were obtained:
Conditions in all cases: 72 h
Calu-3 [1] = assay: relative viability EC50 (midpoint between 100% and the lowest measured viability); higher = less toxic
Vero E6 [2] = assay: as above
U2OS [3] = assay: as above
HepG2 [4] = assay: as above
Caco-2 [5] = assay: as above
Calu-3 [6] = assay: drug sensitivity score (DSS) for viability; higher = more toxic; extreme values may be limits of the assay
Vero E6 [7] = assay: as above
U2OS [8] = assay: as above
HepG2 [9] = assay: as above
Caco-2 [10] = assay: as above
Calu-3 [11] = assay: cell viability relative to DMSO; higher = less toxic
Vero E6 [12] = assay: as above
U2OS [13] = assay: as above
HepG2 [14] = assay: as above
Caco-2 [15] = assay: as above

SMILES	relative viability EC50 (Calu-3 [1])	relative viability EC50 (Vero E6 [2])	relative viability EC50 (U2OS [3])	relative viability EC50 (HepG2 [4])	relative viability EC50 (Caco-2 [5])	drug sensitivity score (Calu-3 [6])	drug sensitivity score (Vero E6 [7])	drug sensitivity score (U2OS [8])	drug sensitivity score (HepG2 [9])	drug sensitivity score (Caco-2 [10])	cell viability (Calu-3 [11]; 1 nM)	cell viability (Calu-3 [11]; 10 nM)	cell viability (Calu-3 [11]; 100 nM)	cell viability (Calu-3 [11]; 1000 nM)	cell viability (Calu-3 [11]; 10000 nM)	cell viability (Vero E6 [12]; 1 nM)	cell viability (Vero E6 [12]; 10 nM)	cell viability (Vero E6 [12]; 100 nM)	cell viability (Vero E6 [12]; 1000 nM)	cell viability (Vero E6 [12]; 10000 nM)	cell viability (U2OS [13]; 1 nM)	cell viability (U2OS [13]; 10 nM)	cell viability (U2OS [13]; 100 nM)	cell viability (U2OS [13]; 1000 nM)	cell viability (U2OS [13]; 10000 nM)	cell viability (HepG2 [14]; 1 nM)	cell viability (HepG2 [14]; 10 nM)	cell viability (HepG2 [14]; 100 nM)	cell viability (HepG2 [14]; 1000 nM)	cell viability (HepG2 [14]; 10000 nM)	cell viability (Caco-2 [15]; 1 nM)	cell viability (Caco-2 [15]; 10 nM)	cell viability (Caco-2 [15]; 100 nM)	cell viability (Caco-2 [15]; 1000 nM)	cell viability (Caco-2 [15]; 10000 nM)
CCN[C@H]1C[C@H](C)S(=O)(=O)c2sc(S(N)(=O)=O)cc21 [dorzolamide]	> 10 µM	> 10 µM	> 10 µM	> 10 µM	> 10 µM	0	0	0	0	0	100%	100%	95.7%	88.3%	98.4%	98.5%	101%	92.6%	98.1%	91.1%	95.2%	100%	93.6%	101%	97.4%	113%	93.7%	104%	94.9%	99.4%	101%	108%	84%	94.7%	100%
N=C(N)NCc1cccc(I)c1 [iobenguane]	> 10 µM	> 10 µM	> 10 µM	> 10 µM	> 10 µM	0	0	0	6.1	1.7	110%	98.9%	107%	111%	98.6%	100%	104%	111%	102%	87.7%	97.6%	99.8%	99.1%	95.2%	95.9%	104%	91.6%	79.8%	79.3%	83%	114%	100%	118%	85.6%	81.4%
O=C1C2CC=CCC2C(=O)N1SC(Cl)(Cl)Cl (stereo not drawn) [captan]	> 10 µM		> 10 µM	> 10 µM	> 10 µM	0		0	3.1	0	99.9%	99.6%	102%	106%	99.4%						105%	100%	105%	96.1%	92.1%	101%	93.1%	85.8%	86.3%	82.1%	102%	102%	101%	98.6%	88.9%
CCc1cc(O)c(Oc2ccc(C(N)=O)cc2F)cc1F	> 10 µM	> 10 µM	> 10 µM	> 10 µM	> 10 µM	0	0	0	0	0	106%	97.8%	95.3%	98.6%	89.3%	102%	98.2%	99.8%	104%	100%	104%	99.9%	102%	102%	102%	110%	94.1%	93%	103%	97.4%	107%	99%	104%	97.9%	101%
COC(=O)c1ccc2c(c1)nc(NC(=O)c1ccccc1)n2CCCc1ccccc1 [BRD4770]	> 10 µM	> 10 µM	> 10 µM	> 10 µM	> 10 µM	0	0	0.1	1.6	1	107%	96.6%	97.4%	93.6%	95.5%	103%	97.4%	98%	96.6%	90.1%	97.9%	98.6%	98.2%	99.3%	88.3%	109%	97.2%	99.9%	94.3%	77%	98%	103%	94.1%	91.9%	80%
CO[C@@]1(NC(=O)C(C(=O)O)c2ccc(O)cc2)C(=O)N2C(C(=O)O)=C(CSc3nnnn3C)CO[C@@H]21 (stereo partly drawn) [moxalactam]	> 10 µM	> 10 µM	> 10 µM	> 10 µM	> 10 µM	0	0	0	0	0	93.2%	100%	92.1%	105%	98%	98.1%	97.5%	98.1%	92.7%	100%	94.8%	98.2%	96.1%	103%	104%	102%	95.2%	117%	84.9%	117%	92.6%	99.7%	96.7%	95.9%	105%
N[C@@H](C[C@@H](F)C(=O)O)C(=O)O [BAY-85-8050]	> 10 µM	> 10 µM	> 10 µM	> 10 µM	> 10 µM	0	0	0	0	0	90.2%	94.7%	90.6%	86.2%	98.5%	93.6%	93.8%	102%	95.7%	100%	93.5%	99.6%	96.7%	100%	106%	96.2%	98.7%	109%	95.6%	99.7%	91.1%	105%	97.8%	100%	110%
